Laboratory results as given in patent publication US20140315956A1, “SMALL MOLECULE INHIBITORS OF IL-6 AND USES THEREOF” (NATIONWIDE CHILDREN'S HOSPITAL, priority 2011, published 2014).
Where “and” joins values, the source holds several entries; their conditions need not be identical. Equal values may be shown once. Read-outs that look alike come from different tables or passages of the source.

Target: T1, gp130 extracellular domain (recombinant gp130-Fc-HA) (Homo sapiens, UniProt P40189)
T1 construct: purified gp130 (amino residue 18-615); made in house; host or cells: HEK293T (plasmid from Dr. John J. Krolewski)
T1 sequence (P40189 18-615): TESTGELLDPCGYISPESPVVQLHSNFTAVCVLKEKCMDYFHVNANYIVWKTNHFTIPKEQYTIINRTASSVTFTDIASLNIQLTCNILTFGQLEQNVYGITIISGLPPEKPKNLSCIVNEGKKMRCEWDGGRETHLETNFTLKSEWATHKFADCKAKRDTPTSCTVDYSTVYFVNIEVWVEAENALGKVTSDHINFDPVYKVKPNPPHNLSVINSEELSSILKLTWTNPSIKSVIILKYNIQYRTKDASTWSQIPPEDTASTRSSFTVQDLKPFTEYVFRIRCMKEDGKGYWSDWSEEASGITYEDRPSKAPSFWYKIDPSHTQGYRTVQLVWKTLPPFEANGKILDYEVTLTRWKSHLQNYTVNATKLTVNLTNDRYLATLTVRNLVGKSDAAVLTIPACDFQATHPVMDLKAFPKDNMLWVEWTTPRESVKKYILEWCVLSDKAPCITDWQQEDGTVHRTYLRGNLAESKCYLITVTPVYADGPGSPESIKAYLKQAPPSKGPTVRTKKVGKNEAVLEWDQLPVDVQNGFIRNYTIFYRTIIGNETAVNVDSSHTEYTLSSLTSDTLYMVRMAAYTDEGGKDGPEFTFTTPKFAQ
Experiment: Surface plasmon resonance direct binding to gp130-Fc-HA
Procedure: HEK293T cells were grown in media containing DMEM+10% fetal bovine serum (FBS),100 U/ml penicillin and […] streptomycin (Invitrogen) in a humidified 37° C. incubator with 5% CO2. Plasmid DNA expressing gp130-Fc-HA was transfected in the form of calcium phosphate precipitate into HEK293T cells (ten T75 flasks containing 5.5×10^6 cells). The supernatant was harvested sixty hours post transfection and centrifuged to remove residual cells and adjusted to pH 8.0. The supernatant was passed through a 0.45 μm filter. The gp130-Fc-HA tagged protein was immunoprecipitated using anti-HA affinity matrix (Roche Applied Bioscience).A one milliliter column containing anti-HA affinity matrix was equilibrated with 20 mM Tris-HCl, 0.1M NaCl, 0.1 mM EDTA (pH 8.0). The supernatant was applied to the equilibrated column and the column was washed successively with 20 mM Tris-HCl, 1M NaCl (pH 8.0). Bound protein was eluted with HA peptide dissolved in equilibration buffer. The column was regenerated with 0.1 M glycine (pH 2.0). Fractions containing recombinant protein were pooled, dialyzed against HBS buffer [10 mM HEPES (pH 7.4), 0.15 M NaCl, 3 mM EDTA, 0.005% P20] and concentrated by Centricon 30 (Amicon) centrifugation. Protein concentration was determined using Bradford protein assay reagent (Pierce), with bovine serum albumin (BSA, Fisher Scientific) as a standard. The purified recombinant gp130 protein was analyzed using SDS-PAGE and immunoblotting.
Surface plasmon resonance (SPR) analysis was performed using BIAcore T100. Recombinant gp130-Fc-HA was cross-linked to the flow cell on a carboxymethylated dextran matrix of a CM5 sensor chip (BIAcore) using standard amino group coupling methods according to the manufacturer's instructions. Sodium acetate (10 mM, pH 3.5) gave the best immobilization of the protein on the chip surface and unreactive groups on the chip were blocked by ethanolamine according to the manufacturer's instructions. Approximately 5000 resonance units (RU) of gp130-Fc-HA were cross-linked to the flow cell. HBS+1% DMSO were used in all buffers (running and sample) to avoid background response due to differences in buffer refractive index. For the equilibrium analysis, various concentrations of MDL-A, 1, and 2 were injected for a period of 2 min at a flow rate of 30 μl/min, in series, into flow cells containing covalently bound gp130-fc-HA and reference flow cell. Bound ligand (MDL-A, 1, and 2) in each assay was removed by passing 10 mM glycine (pH 2.2) over the chip surface. Biacore T100 Evaluation 2.0 was used for all interaction analyses. The steady-state equilibrium response (RUeq) was determined from the reference-subtracted sensogram. The kinetics parameter was calculated according to a 1:1 Langmuir binding model (A+B ? AB) by direct fitting of ligand binding sensor grams at multiple concentrations. The dissociation equilibrium constant is defined as dissociation constant (KD)=dissociation rate constant (kd)/association rate constant (ka). KD was determined by scattered analysis of equilibrium-state data obtained at different concentrations of analogues.
To examine the direct binding and calculation of equilibrium dissociation constant (KD) of MDL-A analogues with gp130 extracellular domain, surface plasmon resonance analysis was done. Protein was covalently cross linked to the dextran matrix of the biosensor chip CM5. Successively, various concentrations of MDL-A and MDL-A analogues were injected into the flow cells containing bound protein and no protein (reference). Interactions were monitored in real time and KD values were calculated by reference-substrated sensogram.
To examine the direct binding and calculate the equilibrium dissociation constant (KD) of MDL-A analogues with gp130 extracellular domain, surface plasmon resonance analysis was performed. Surface plasmon resonance (SPR) analysis was performed using a BIAcore T100. […]

- Kd (gp130 extracellular domain, Biacore evaluation software 2.0, read-out: KD): 288 µM
- Kd (values in running text and figure legend, read-out: dissociation constant (KD)): ~300 µM and ~290 µM
SMILES: CCCCC1=C(C)C(=O)[C@@](C)(CN2c3ccccc3[C@]3(O)CCO[C@H]23)C1=O [MDL-A, (+)-Madindoline A, reference compound]
